Measured values published in US6720345B1, “Semicarbazone derivatives and their use as thrombopoietin mimetics” (SmithKline Beecham Corporation, priority 1999, dated 2004).

Molecular target: T1, TPO receptor (Homo sapiens, UniProt P40238)
T1 construct: expressed in transfected cells; host or cells: murine BaF3 cells (TPO-responsive line)
T1 sequence (P40238 26-635): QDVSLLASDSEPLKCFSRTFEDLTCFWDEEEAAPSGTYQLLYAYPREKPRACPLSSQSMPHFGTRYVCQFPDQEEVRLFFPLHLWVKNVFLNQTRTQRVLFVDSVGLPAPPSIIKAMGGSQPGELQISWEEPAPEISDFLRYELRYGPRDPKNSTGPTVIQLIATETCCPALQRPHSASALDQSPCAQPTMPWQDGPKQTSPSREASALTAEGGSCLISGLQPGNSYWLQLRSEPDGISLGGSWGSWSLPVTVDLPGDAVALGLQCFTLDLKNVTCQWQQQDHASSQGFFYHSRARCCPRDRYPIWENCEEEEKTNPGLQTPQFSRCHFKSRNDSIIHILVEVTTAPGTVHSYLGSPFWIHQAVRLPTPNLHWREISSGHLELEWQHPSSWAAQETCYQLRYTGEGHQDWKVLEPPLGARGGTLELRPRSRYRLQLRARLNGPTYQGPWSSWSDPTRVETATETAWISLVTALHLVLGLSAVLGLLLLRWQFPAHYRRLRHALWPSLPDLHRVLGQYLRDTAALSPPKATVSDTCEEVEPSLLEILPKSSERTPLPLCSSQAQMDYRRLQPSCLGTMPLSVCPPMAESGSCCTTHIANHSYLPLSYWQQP
Test: Luciferase assay in TPO-responsive BaF3 cell line
Format: cell-based, murine
Conditions: at a concentration of 10 uM
Experimental: Compounds of the present invention were tested for potency as mimetics of the TPO receptor in a Luciferase assay such as described in Lamb, et al., Nucleic Acids Research 23: 3283-3289 (1995) and Seidel, et al., Proc. Natl. Acad. Sci., USA 92: 3041-3045 (1995) by substituting a TPO-responsive BaF3 cell line (Vigon et al. Proc. Natl. Acad. Sci. USA 1992, 89, 5640-5644) for the HepG2 cells utilized therein. The murine BaF3 cells express TPO receptors and closely match the pattern of STAT (signal transducers and activators of transcription) activation observed in primary murine and human bone marrow cells in response to TPO.

With `O=C1CSC(=S)N1N=Cc1cc(Br)cc(Br)c1O` [Compound A, 3-[(2-hydroxy-3,5-dibromophen-1-yl)methyleneamino]-2-thioxothiazolidin-4-one] the “activation, % of control (control is the maximal response to TPO)” value was “about 9 % of control”.
